The structures appear in SMILES notation.

This data set can be described thus: gradient 5% acetonitrile 3 min, to 50% in 2 min, to 85% in 15 min, held 3 min, 100 µL/min. The following applies: column: Zorbax Extend-C18 2.1 x 50 mm; eluents: water / acetonitrile, 0.1% formic acid. Summed up:
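Pure standards were run in mixtures of ~100 molecules by HPLC coupled to a quadrupole time-of-flight mass spectrometer. The column was a Zorbax Extend-C18 (2.1 × 50 mm, 1.8 μm) at 100 μL/min, with water and acetonitrile each containing 0.1% formic acid, in positive and negative ionization mode. Dead and dwell volumes were 40 μL and 900 μL. Retention time was taken from computationally picked adduct peaks, each manually inspected, with data collected over 3 months.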
Compound `CCOc1ccc2nc(NC(=O)Cc3csc4nc(-c5ccc(C)c(C)c5)cn34)sc2c1` yielded an RP-LC retention time of 980 s.

For the compound `CCCCN(CC)C(=O)c1cc(NC(=O)CC(C)C)cnc1N1CCNCC1`, the RP-LC retention time was 632 s.

Consider `CCCCC(=O)Nc1cc(C(=O)O)ccc1N(C)CCc1c(C)nn(C)c1C`, for which the RP-LC retention time turned out to be 596 s.

`Clc1cccc(Nc2nnc(-c3ccccc3)c3ccccc23)c1`: the RP-LC retention time is 790 s.

With `COC(=O)C1=CN(c2cccc(F)c2)c2ccccc2S1(=O)=O`, the RP-LC retention time worked out at 796 s.

`CCOC(=O)c1ccc(N2C=C(C#N)S(=O)(=O)c3ccc(F)cc32)cc1` registered an RP-LC retention time of 972 s.

Compound `CC(=O)N1c2ccc(S(=O)(=O)N3CCC(c4ccncc4)CC3)cc2CC1C` (stereo not drawn) gave an RP-LC retention time of 620 s.

Regarding `Nc1cc(C2CCN(S(=O)(=O)Cc3ccc(F)cc3)CC2)no1`, the RP-LC retention time came out at 747 s.

Take `Cc1occc1C(=O)N1CCCn2ccnc2C1C(C)C` (stereo not drawn): the RP-LC retention time came out at 574 s.

In the case of `COCCCN1C(=O)CC(N2CCN(c3ccc(F)cc3)CC2)C1=O` (stereo not drawn), the RP-LC retention time is 666 s.

The compound `c1ccc([C@@H]2NCCO[C@H]2COc2ccccn2)cc1` registered an RP-LC retention time of 595 s.

As for `Cc1cccc(-c2noc(Cn3c(=O)n(Cc4ccccc4)c(=O)c4sccc43)n2)c1`, the RP-LC retention time turned out to be 1060 s.

`CC(C)c1cccc(NC(=O)C2CCc3nc(N4CCOCC4)ncc3C2)c1` (stereo not drawn): the RP-LC retention time was 755 s.

Consider `O=C(Oc1ccc2c(c1)O/C(=C\c1ccncc1)C2=O)c1ccc2c(c1)OCO2`, for which the RP-LC retention time was determined as 725 s.

Regarding `Cc1ccc(OCC(=O)Nc2nnc(C3CC(=O)N(c4ccc(F)cc4)C3)o2)cc1` (stereo not drawn), the RP-LC retention time was 792 s.

`CC(=O)Nc1ccc(C(=O)N(C2CC2)C2(C(=O)NCc3ccccc3)CCN(C(C)=O)CC2)cc1` returned an RP-LC retention time of 692 s.

On to `COc1ccc(NC(=O)N2CCC(CCOc3cccnc3)CC2)cc1`, for which the RP-LC retention time was 630 s.

`Cc1ccc(Oc2cccc(C(=O)Nc3ccc(-c4cn5ccccc5n4)cc3)c2)nn1` yielded an RP-LC retention time of 568 s.

`COc1ccc(-c2noc(Cn3ccnc3)n2)cc1OC` gave an RP-LC retention time of 586 s.

In the case of `Cc1ccc(Sc2nccnc2N2CCCC(C(=O)NCc3cc(F)cc(F)c3)C2)cc1` (stereo not drawn), the RP-LC retention time was found to be 1120 s.

`O=C(Nc1cccc(F)c1)N1CCN(Cc2nc3cc(Cl)ccc3o2)CC1` registered an RP-LC retention time of 784 s.

In the case of `CC(C)CC(=O)Nc1ccc(N2CCCC(C)C2)cc1C(=O)O` (stereo not drawn), the RP-LC retention time came to 671 s.

For the compound `O=C(NCc1csc(-c2cccs2)n1)C1CCN(S(=O)(=O)c2ccc(F)cc2)CC1`, the RP-LC retention time stood at 892 s.

`CCc1nc(-c2csc(S(=O)(=O)N3CCCC(C(=O)Nc4cccc(C)n4)C3)c2)no1` (stereo not drawn) gave an RP-LC retention time of 869 s.

Compound `COCC(=O)N1CCc2c(c(-c3nc(C4CC4)no3)nn2C)C1` showed an RP-LC retention time of 653 s.

`COc1cc(Nc2nc(-c3nnn(-c4ccc(Cl)cc4)c3C)ns2)cc(OC)c1` returned an RP-LC retention time of 1100 s.

For the compound `CS(=O)(=O)N1CCCc2cc(C(=O)N3CCCCCC3)ccc21`, the RP-LC retention time came out at 800 s.

Compound `Cc1ccc(CNC(=O)C2CCN(S(=O)(=O)c3cc(-c4noc(C5CC5)n4)sc3C)CC2)o1` showed an RP-LC retention time of 1010 s.

As for `COCCNC(=O)N1CCN(c2cc(-c3cccc(OC)c3)ncn2)CC1`, the RP-LC retention time was determined as 593 s.

In the case of `COc1cccc(-c2nc(CS(=O)(=O)CC(=O)N3CCN(c4ccccn4)CC3)c(C)o2)c1`, the RP-LC retention time was 631 s.

`CS(=O)(=O)N1CCN(C(=O)CCCn2nc(-c3ccc(F)cc3)ccc2=O)CC1` came in with an RP-LC retention time of 652 s.

Take `O=C(c1ccoc1)N1[C@H]2CC[C@@H]1c1cnc(-c3ccc(F)cc3)nc1C2`: the RP-LC retention time came out at 882 s.

With `O=C(Nc1ccc2c(c1)OCCO2)c1cc(-c2ccncc2)n[nH]1`, the RP-LC retention time came to 606 s.

In turn, `Cc1cc(C)cc(NC(=O)Cn2ncc3c(c2=O)N(C2CC2)C(=O)CS3)c1` gave an RP-LC retention time of 797 s.

The compound `CC(=O)N(C)Cc1nc2ccccc2n1CC(=O)N1CCCC1` gave an RP-LC retention time of 581 s.

For `COc1nc2ccccc2nc1N1CCCC(C(=O)Nc2cc(F)ccc2F)C1` (stereo not drawn), the RP-LC retention time is 1200 s.

Consider `Cn1nc(C(=O)N2CCCN(c3cc(-c4ccc(Br)cc4)[nH]n3)CC2)c2ccccc21`, for which the RP-LC retention time is 807 s.

Compound `Cc1ccc2nc(C(=O)NCc3cccc(Cl)c3)cn2c1` had an RP-LC retention time of 718 s.

In turn, `COc1ccc(NC(=O)Cn2nc3c(Oc4cc(C)cc(C)c4)nccn3c2=O)cc1` had an RP-LC retention time of 859 s.

`CCCC(=O)N1CCC(C(=O)N2c3ccccc3CC2C)CC1` (stereo not drawn) showed an RP-LC retention time of 794 s.

`CCCn1cc(C2=CCN(S(=O)(=O)c3ccc(OC)c(Cl)c3)CC2)c2cccnc21` came in with an RP-LC retention time of 921 s.

For `COc1ccc(S(=O)(=O)N2CCCC(C(=O)NC3CC3)C2)cc1OC` (stereo not drawn), the RP-LC retention time came to 702 s.

The compound `O=C(Nc1cccc(Cl)c1)C1CCN(S(=O)(=O)c2cc(-c3noc(C4CC4)n3)cs2)CC1` yielded an RP-LC retention time of 1100 s.

In the case of `CC(C)C(=O)NC(C)c1nc2ccccc2n1CC(N)=O` (stereo not drawn), the RP-LC retention time is 503 s.

For `CCc1ccccc1NC(=O)C1CC(=O)N(c2ccc3c(c2)CCN3C(=O)C2CC2)C1` (stereo not drawn), the RP-LC retention time was 780 s.

For the compound `CCC(=O)N(CC(=O)N1CCc2sccc2C1COc1cccc(OC)c1)CC1CCCO1` (stereo not drawn), the RP-LC retention time was 858 s.

Compound `CC(NC(=O)Cn1c(=O)c2cccn2c2ccccc21)c1ccc2c(c1)OCCO2` (stereo not drawn) returned an RP-LC retention time of 794 s.

`COc1ccc(NC(=O)N2C[C@@H]3C[C@H]2C[C@@H]3NS(=O)(=O)c2ccccc2)cc1F` displayed an RP-LC retention time of 778 s.

For `O=C(Cn1c(=O)c2cccn2c2ccc(F)cc21)NCCCN1CCCC1`, the RP-LC retention time came out at 598 s.

The compound `COc1cccc(Cn2nc(-c3nc(-c4ccc(Cl)cc4)no3)ccc2=O)c1` showed an RP-LC retention time of 1190 s.

`COCC1CN(C2CCC2)CC12CCN(C(=O)C(C)C)CC2` (stereo not drawn) registered an RP-LC retention time of 584 s.

The compound `O=C(Nc1ccc2c(c1)CCC2)C1CC(=O)N(CCc2c[nH]c3ccc(Cl)cc23)C1` (stereo not drawn) returned an RP-LC retention time of 921 s.

With `CCN(C(=O)Cn1cnc2nc3c(cc2c1=O)CCCC3)c1cccc(Cl)c1`, the RP-LC retention time came out at 850 s.

Turning to `CC1CCCN(C(=O)c2cn(-c3cc(-c4nc(C(C)(C)C)no4)ccn3)cn2)C1` (stereo not drawn), the RP-LC retention time was found to be 1040 s.

With `Cc1ccc(NC(=O)N2CCN(c3nc4cccnc4n(C)c3=O)CC2)cc1Cl`, the RP-LC retention time is 951 s.

In turn, `CCCN(CC1CCOC1)C(=O)Nc1ccc(OCC)cc1` (stereo not drawn) returned an RP-LC retention time of 750 s.

Take `O=C(NCc1ccc(F)cc1)c1nnc(-c2ccc(S(=O)(=O)N3CCOCC3)cc2)o1`: the RP-LC retention time is 910 s.

Regarding `Cn1c(=O)sc2cc(S(=O)(=O)N3CCC(C(=O)Nc4ccc(F)c(Cl)c4)CC3)ccc21`, the RP-LC retention time amounted to 938 s.

For the origin of these results see the METLIN SMRT retention time set (Domingo-Almenara et al. 2019).
